# Experiments:
# [1] = tested on: cells in the retinal ganglion cell layer; test: Rat model of ischemia/reperfusion-induced retinal damage; format: in vivo; conditions: oral, twice daily for 12 days, eyes taken 7 days after ischemia/reperfusion
# Protocol: The usefulness of Ebselen against retinal ischemia/reperfusion damage was evaluated using a rat model of ischemia/reperfusion-induced retinal damage (Ophthalmologica. 1991; 203: 138-147) as a model for studying an effect on retinal damage induced by ischemia/reperfusion.
# A 1% (w/v) atropine sulfate hydrate ophthalmic solution (manufactured by Nihon Tenganyaku, Co. Ltd., product name: Nitten ATROPINE Ophthalmic Solution 1%) was instilled into the eye of a rat (Slc:SD, male, about 7 weeks old) to cause mydriasis, and general anesthesia was induced by allowing the rat to inhale a gas obtained by vaporizing 3% (v/v) halothane (manufactured by Takeda Pharmaceutical Company Limited., product name: Fluothane) by a mixed gas (2 L/min) of 100% (v/v) oxygen (0.5 L/min) and 100% (v/v) nitrous oxide (1.5 L/min), and the anesthesia was maintained under conditions of 1% (v/v) halothane. […] From the 8 sections, 3 sections were arbitrarily selected, and with respect to the selected sections, a photograph of the retina in the range of from 1 to 1.5 mm on the left or right side from the optic nerve head was taken, and the number of cells in the retinal ganglion cell layer was measured. […]
# [2] = tested on: photoreceptor cells (visual cells); conditions: ischemia/reperfusion rabbit model; cited from earlier work
# [3] = tested on: chick retinal cells; conditions: chick retinal cells in an embryonic stage; cited from earlier work
# [4] = tested on: NQO-1; test: Induction of gene expression in rat fetus-derived retinal neuron culture system (quantitative PCR); format: cell-based; conditions: mean ± standard deviation, normalized to GAPDH
# Protocol: (§1) Test 1: Study of Ability to Induce Expression of Genes of Phase II Xenobiotic Metabolizing Enzyme and Antioxidant Enzyme using Rat Fetus-Derived Retinal Neuron Culture System
# (§2) The ability of Ebselen to induce the expression of genes of a phase II xenobiotic metabolizing enzyme and an antioxidant enzyme was evaluated using a rat fetus-derived retinal neuron culture system (Brain Res. 2003; 967: 257-66) Incidentally, the rat fetus-derived retinal neuron culture system has been extensively used as a technique for culturing retinal neurons and has been widely used as one of the tools for studying optic nerve diseases such as glaucoma.
# (§3) Retinal neurons of a rat fetus (Slc:Wistar/ST, 18 days old) were isolated and seeded onto a polyethyleneimine-coated plastic coverslip. Then, the cells were cultured for 3 days in an Eagle's minimum essential medium supplemented with 10% fetal bovine serum. Thereafter, a solvent (0.1% ethanol) or Ebselen was added thereto to give a final concentration of 25 μM, and the cells were incubated in the culture medium. Incidentally, the culture was performed under the conditions of 37° C. and 5% CO2. The culture medium was removed at each time point of 4, 8, or 12 hours after initiation of incubation. A mixed solution was prepared by adding 1% (v/v) β-mercaptoethanol (manufactured by BioRad, Cat No. 161-0710) to Buffer RLT attached to RNeasy Mini Kit (250) (manufactured by QIAGEN, Cat No. 74106), and the retinal neurons on the plastic coverslip were lysed with the thus prepared mixed solution. The total RNA was extracted from the resulting cell lysate according to the protocol attached to the RNeasy Mini Kit (250), and cDNA was synthesized using ExScript™ RT reagent Kit (manufactured by TAKARA, Cat No. RR035B). According to the protocol attached to SYBR Premix Ex Taq (Perfect Real Time) (manufactured by TAKARA, Cat No. RR041B), SYBR Premix Ex Taq (Perfect Real Time), ROX Reference Dye, the synthesized cDNA, and each primer pair of glyceraldehyde-3-phosphate dehydrogenase (hereinafter also referred to as “GAPDH”), GCLM, TRxR, HO-1, or NQO-1 (manufactured by Nihon Gene Research Laboratories Inc.) were mixed, and PCR reaction was performed using a quantitative PCR system (manufactured by Applied Biosystems, system name: ABI PRISM 7000), and the expression level of each of the genes of GAPDH, GCLM, TRxR, HO-1, and NQO-1 was measured. From the obtained results, a relative expression level of each target gene was calculated by normalizing the expression level of each target gene with the expression level of GAPDH which is a housekeeping gene according to the equation 1. Further, an induction ratio (%) of each target gene to the vehicle group was obtained by dividing the value of the expression level of each gene in the 25 μM Ebselen group by a mean value of the expression level of the same gene in the vehicle group according to the equation 2. Each data was shown as the mean±standard deviation of three independent experiments.
# (§4) Relative expression level of each target gene=(Expression level of each gene/Expression level of GAPDH) [Equation 1]
# (§5) Induction ratio of each target gene to vehicle group (%)=(Expression level of each gene in 25 μM Ebselen group/Expression level of each gene in vehicle group) [Equation 2]
# [5] = tested on: TRxR; test: as above; format: cell-based; conditions: mean ± standard deviation, normalized to GAPDH
# Protocol: as §1, §2, §3, §4, §5
# [6] = tested on: GCLM; test: as above; format: cell-based; conditions: mean ± standard deviation, normalized to GAPDH
# Protocol: as §1, §2, §3, §4, §5
# [7] = tested on: HO-1; test: as above; format: cell-based; conditions: mean ± standard deviation, normalized to GAPDH
# Protocol: as §1, §2, §3, §4, §5
smiles,measurement,setting,value
"O=c1c2ccccc2[se]n1-c1ccccc1 [Ebselen, 2-phenyl-1,2-benzisoselenazol-3(2H)-one]",Suppression ratio against decrease in the number of cells in retinal ganglion cell layer,[1]; 3 mg/kg/day,38.0%
same,Suppression ratio against decrease in the number of cells in retinal ganglion cell layer,[1]; 30 mg/kg/day,59.7%
same,Effect on b-wave of the electroretinogram (ERG) after ischemia/reperfusion,[2],attenuated the reduction of the b-wave
same,Effect on cell death caused by glutamate excitotoxicity,[3],inhibited the cell death caused by glutamate excitotoxicity
same,Induction ratio of expression of NQO-1 gene in 25 μM Ebselen group to vehicle group,[4]; after 4 hours,450 ± 74%
same,Induction ratio of expression of NQO-1 gene in 25 μM Ebselen group to vehicle group,[4]; after 8 hours,937 ± 183%
same,Induction ratio of expression of NQO-1 gene in 25 μM Ebselen group to vehicle group,[4]; after 12 hours,1266 ± 212%
same,Induction ratio of expression of TRxR gene in 25 μM Ebselen group to vehicle group,[5]; after 4 hours,225 ± 11%
same,Induction ratio of expression of TRxR gene in 25 μM Ebselen group to vehicle group,[5]; after 8 hours,193 ± 13%
same,Induction ratio of expression of TRxR gene in 25 μM Ebselen group to vehicle group,[5]; after 12 hours,301 ± 26%
same,Induction ratio of expression of GCLM gene in 25 μM Ebselen group to vehicle group,[6]; after 4 hours,198 ± 18%
same,Induction ratio of expression of GCLM gene in 25 μM Ebselen group to vehicle group,[6]; after 8 hours,194 ± 14%
same,Induction ratio of expression of GCLM gene in 25 μM Ebselen group to vehicle group,[6]; after 12 hours,172 ± 13%
same,Induction ratio of expression of HO-1 gene in 25 μM Ebselen group to vehicle group,[7]; after 4 hours,1263 ± 365%
same,Induction ratio of expression of HO-1 gene in 25 μM Ebselen group to vehicle group,[7]; after 8 hours,1458 ± 307%
same,Induction ratio of expression of HO-1 gene in 25 μM Ebselen group to vehicle group,[7]; after 12 hours,1311 ± 237%

# Reference: patent US20110009376A1, “PROPHYLACTIC OR THERAPEUTIC AGENT FOR EYE DISEASE ACCOMPANIED BY OPTIC NERVE DISORDER” (priority 2008, published 2011)
